{"source": "patent US8624053B2", "about": "“Method to produce a stable dry ionic-bonded creatine α ketoglutarate of high oral absorbability” (priority 2012, dated 2014)", "test_system": "athletes", "details": "about half the dose provided from other preparations", "excerpt": "(The actual dose depended on the athlete.)\nThe performance evaluations were made by experienced coaches, overlooking standard athletic tasks."}
{"substance": "creatine α-ketoglutarate [product of the invention]", "values": [{"measurement": "time after delivery to peak performance", "result": "ten"}]}
